Here are results for 1 molecule from patent publication US7309484B2, “Compositions and methods for screening antibacterial compounds” (priority 2003, dated 2007).

In brackets after ≈: the same amount, converted by molar mass. Where two headings read alike, the source gives them in different places. Bridge positions count the residues as written; N and C are the ends. Square brackets hold non-standard residues; d marks the D form. Peptide text beside a SMILES is read from it. * marks the point of attachment. Ileψ(thiazoline)Cys = CC[C@H](C)[C@H](N)C1=N[C@H](C(=O)*)CS1; dOrn = NCCC[C@@H](N)C(=O)O

Format in all cases: cell-based, Bacillus subtilis
Assay [1] has as its system B. subtilis wild-type strain CU1065 gene expression. Description: DNA microarray analysis of the bacitracin stimulon, wild-type CU1065. The following applies: wild type CU1065, 5 min after bacitracin. From the text: The bacitracin stimulon of B. subtilis was examined using global transcriptome analysis. […] Under most conditions tested, about 60-70 genes were induced greater than 5-fold. […] The scatter-plot represents the data sets obtained for strain HB0920 (yvqH was still detected as bacitracin-inducible due to the presence of a remaining region near the 5′-end of the gene). […] Members of the σ^M (white open squares) and σ^B (small black triangles) regulon are highlighted. All other gene signals are represented as small gray diamonds. […]
The bacitracin stimulon in the wild-type strain CU1065 was qualitatively similar to that of the liaH-deletion mutant HB0920 as judged by a comparison of the induction profile at 5 min, as illustrated in FIG. 8. […] Relative hybridization intensities are plotted for genes as measured for CU1065 (x axis) and HB0920 (y axis). […]
This locus is therefore a candidate for negative regulation by LiaH. In addition, expression of the bacAB and yvcRS loci was threefold greater in CU1065 than in the liaH mutant when both were measured 5 min after bacitracin treatment. […]
Each slide contains 9220 features corresponding to duplicate copies of each open reading frame, additional PCR products for some ORFs, rRNA genes, and other controls. […] Fluorescent signal intensity data was quantified using ArrayVision software (Molecular Dynamics) and normalized to the total detectable mRNA. […]

The subject of assay [2] is B. subtilis CU1065 and isogenic deletion mutants. As to the kind of experiment: Minimal inhibitory concentration (MIC), microtiter-plate assay. The following applies: for MIC: Bacillus subtilis. On the procedure: Since B. subtilis is closely related to the bacitracin-producing strains, it seemed likely that a similar system as described for B. licheniformis could exist in CU1065. The identification of two loci encoding ABC transporters that are under the bacitracin-inducible control of a two-component system supported this hypothesis. […] All strains were grown in microtiter-plates for 4 hours after dilution into LB medium containing the indicated concentrations of bacitracin. The experiment was done in triplicate and a representative result is shown. Strains used were: CU1065 (black squares), ‘bacR’ (HB0927, open diamonds), ‘bacAB’ (HB0928, black diamonds), ‘sigM’ (HB0031, open circles), ‘bcrC’ HB0106 (closed circles), ‘bcrC/bacAB’ (HB0937, black triangle). Compare also with Table 1.
Determination of the minimal inhibitory concentration (MIC): MIC-assays were performed in microtiter plates using a ‘Tecan Spectra Rainbow’ microtiter plate reader. […] Tenfold dilution of these cultures were inoculated in a total volume of 200 μl/well with increasing quantities of bacitracin, ranging from 0.01 to 1000 μg/mL (final concentration). The plates were incubated at 37° C. and the O.D.600 was read after 4 hours, when cultures had reached their final cell density. All experiments were performed in triplicate.

Assay [3] concerns B. subtilis strain BFS2470. Description: Concentration-dependent induction/killing experiments. On the procedure: Concentration-dependent induction/killing experiments were performed for bacitracin, nisin, ramoplanin and vancomycin as shown in FIG. 7. In all four cases the induction of liaI occurred in a concentration-dependent manner (FIG. 7a), reaching a maximum at an antibiotic concentration of about 10 μg/ml (1 μg/mL for vancomycin). The time of antibiotic addition is indicated by an arrow. The antibiotic concentrations affecting the induction of PliaI according to the β3-galactosidase assay are indicated by white symbols. The corresponding concentrations are: bacitracin ([…]), nisin (50, 70 and 100 μg/ml), ramoplanin (20, 50 and 100 μg/mL) and vancomycin (5, 10, 50 and 100 μg/mL).
This finding correlates well with the bactericidal effects of these antibiotics as inferred from the dramatic decrease of optical density: there is little effect of bacitracin and vancomycin on cell growth during the first 30-60 min after addition even at high concentrations (FIG. 7b).
The cultures were incubated with aeration at 37° C.

Consider `CC[C@H](C)[C@H](N)C1=N[C@H](C(=O)N[C@@H](CC(C)C)C(=O)N[C@H](CCC(=O)O)C(=O)N[C@H](C(=O)N[C@H]2CCCCNC(=O)[C@H](CC(N)=O)NC(=O)[C@@H](CC(=O)O)NC(=O)[C@H](Cc3cnc[nH]3)NC(=O)[C@@H](Cc3ccccc3)NC(=O)[C@H]([C@@H](C)CC)NC(=O)[C@@H](CCCN)NC2=O)[C@@H](C)CC)CS1` [Bacitracin] ({Ileψ(thiazoline)Cys}-L[dE]IK[dOrn]I[dF]H[dD]N; lactam 4-C), for which, in assay [1], the “induction of yhcYZ/yhdA locus” value was “not induced”. Besides, the MIC was determined as 10 µg/mL (≈ 7.03 µM) in assay [2] (4 h, read-out: Bacitracin MIC, mutant in bacAB (ytsCD), LB, 4 hours); 25 µg/mL (≈ 17.6 µM) in assay [2] (4 h, read-out: Bacitracin MIC, mutant in bcrC, LB, 4 hours); 2.5 µg/mL (≈ 1.76 µM) in assay [2] (read-out: bacitracin-resistance (MIC), bcrC/bceAB double mutant (HB0937)); 500 µg/mL (≈ 351 µM) in assay [2] (read-out: bacitracin-resistance (MIC), wild type strain (CU1065)). Besides, the “reduction in MIC compared to CU1065” value in assay [2] (bceAB deletion) and in assay [2] (bceR deletion) was 50 fold each time. Besides, the “decrease of bacitracin-resistance compared to the wild type strain” value in assay [2] (bcrC/bceAB double mutant) came to 200 fold. Besides, the “lacZ-expression at higher concentration” value in assay [3] (FIG. 7a, in words) is “remained elevated”. Further, in assay [3] (high concentrations, FIG. 7b, in words), the “effect on cell growth / optical density” value was “little effect”. In addition, the “antibiotic concentration at maximum induction of liaI” value in assay [3] (β-galactosidase assay after 30 min, 0.01 to 100 μg/ml tested) was “about 10 μg/ml”.
